Results on two molecules are retold here after patent US12071488B2, “Method of sensitizing cancer cells to anti-cancer treatment” (TWO TO BIOTECH LTD., priority 2017, dated 2024).

The subject of test [1] is human TNBC tumors (MDA-MB-231). The test can be described thus: Relative tumor volume in nude mice inoculated with TNBC cells. Type of test: in vivo. As to conditions: MDA-MB-231 tumors; APC1 15 mg/kg, doxorubicin 3 mg/kg once a week; 5 weeks; control increased linearly. An excerpt:
To this end, mice were inoculated with TNBC cells as detailed above, briefly 32 nude mice were inoculated subcutaneously with TNBC cells (MDA-MB-231, 8×10^6 cells per mouse).

For test [2], the system named is human ovarian cancer cells (OV90). Kind of test: Relative tumor volume in nude mice inoculated with human ovarian cancer cells. Type of test: in vivo. The following applies: OV90 tumors; APC1 15 mg/kg, doxorubicin 3 mg/kg once a week; 5 weeks; control increased linearly.
Experimental: During the treatment period, each mouse was weighted, and the tumor size was measured by Digital caliper.
When the tumors exceeded a volume of 40 mm^3 or 50 mm^3 (for OV90 and Panc1, respectively), the mice were randomly divided into four groups of 8 mice each, as follows. A control group was treated with saline only, the APC1-treated group was treated three times a week with doses of APC1 at 15 mg/kg each, the doxorubicin and APC treated group was treated twice a week with doses of APC1 (at 15 mg/kg each) and once a week with doxorubicin (at 3 mg/kg) and the doxorubicin-treated group was treated with doxorubicin only, once a week at a dose of 3 mg/kg. These dosing protocols were repeated throughout the experiment, namely for 5 weeks.
The subject of test [3] is leukemia and prostate cancer cells. As to conditions: WO 2009/083968; cited from earlier work.
Another test has as its system tumor. As to conditions: WO 2009/083968; cited from earlier work.

Turning to `COc1cccc2c1C(=O)c1c(O)c3c(c(O)c1C2=O)C[C@@](O)(C(=O)CO)C[C@@H]3O[C@H]1C[C@H](N)[C@H](O)[C@H](C)O1` [doxorubicin, (7S,9S)-7-[(2R,4S,5S,6S)-4-amino-5-hydroxy-6-methyloxan-2-yl]oxy-6,9,11-trihydroxy-9-(2-hydroxyacetyl)-4-methoxy-8,10-dihydro-7H-tetracene-5,12-dione, reference compound], the relative tumor volume entry in test [1] is “moderate increase”; in test [2], “modest increases”.

B1: MPGHSRLLSILVSGLCVVGSSIGVLRRREQAERGSRRCAIAGEERAMLSPSPLPE TPFSPEKGAAFSPIYPRRK (protein, listed as Homo sapiens)
chain: MPGHSRLLSILVSGLCVVGSSIGVLRRREQAERGSRRCAIAGEERAMLSPSPLPETPFSPEKGAAFSPIYPRRK
notes: full length polypeptide of 74 amino acid residues described in WO 2009/083968
Consider B1, for which the “viability of leukemia and prostate cancer cells” value in test [3] is listed as “decrease in the viability”. For the same molecule, the “tumor growth in mice” value in the test on tumor is “prevention of tumor growth”.
